“And” between values parts separate entries of the source, which are not always exact repeats. Equal entries are not always repeated. Where two headings read alike, the source gives them in different places.

Consider three molecules from US8450359B2, “Polymer-supported photosensitizers for the generation of singlet oxygen” (The Queen's University of Belfast, priority 2006, dated 2013).

In one data set the test system is Pseudomonas aeruginosa. The following applies: for dark activity: intense light series, dark control; for time to activity in light: intense light.
The subject of a further data set is Proteus mirabilis. The following applies: for reduction in viable count: more intense light; for reduction in growth / viable count: 24 hour study, after 24 hours.
Data set [1] concerns Staphylococcus epidermidis. The following applies: for time to dark activity: daylight / laboratory light series; for time to activity in the dark: intense light series; for time to activity on illumination: intense light.
Procedure: (§1) Studies were performed on the photosensitising activity of porphyrin solutions against Staphylococcus epidermidis, Pseudomonas aeruginosa and Proteus mirabilis as these organisms have been isolated from culture-positive cases of infectious endophthalmitis. Studies were performed by adding a porphyrin solution to a culture of the test organism, exposing this mixture to daylight or to a more intense light source comprising 4×250 W halogen bulbs, and then taking a 1 mL aliquot at certain times to determine the viable count.
(§2) 10 mcg/mL solutions of the three porphyrins were investigated. Initially the solutions were made up at the desired concentration and then double filter sterilised.
(§3) Inocula of approximately 1×10^5 cfu/mL were utilised throughout the microbiological studies of porphyrin solutions. Activity was examined both in normal daylight conditions and using a more intense light source comprising 4×250 W halogen bulbs, cooling the temperature to around 32° C.
(§4) Unfiltered and double filter sterilised 10 mcg/mL solutions were used to examine the effect of double filtration on activity.
The conditions of data set [2]: D2O, single exponential decay following the rapid component.
Source text: The ^1O2 detection system was a liquid-nitrogen-cooled Indium Gallium Arsenide (InGaAs) detector (Judson Technologies Inc, Montgomeryville, Pa., type J22D-M204-R01M-60-1.7) with a 1 mm^2 active area. The detector output was amplified using a Judson PA9 pre-amplifier and collected using a Tektronix TDS 3032 oscilloscope. To obtain acceptable signal-to-noise ratios 512 decays were summed for each reading. To minimise the effect of any inhomogeneity in the sample, readings from 8 different points were averaged, The singlet oxygen emission at 1270 nm was separated from the 1064 nm fundamental laser emission and other spurious emissions by use of a 1200 nm long pass filter (LP1200) and a 1292 nm band pass filter (BPO-1292-80), both supplied by Spectrogon UK Ltd.
Using this approach, the polymers prepared were pre-wetted in buffer prepared with D2O and dipped in porphyrin solutions also prepared from D2O.
Data set [3] is described as follows: Transient absorbance (triplet lifetime) measurements. It counts as physicochemical. As to the method:
For the transient absorption and singlet oxygen studies, the second harmonic output from a Q-switched Nd:YAG laser was used as the excitation source and the sample was mounted at […] to the excitation beam. A pulse energy of 1 mJ was used for the measurements to avoid burning the sample. For transient absorption measurements, light from a xenon arc lamp (Applied Photophysics Ltd., 150 W) traveling at 90° to the excitation beam was directed through the sample and into a monochromator (Applied Photophysics Ltd., 1200 gr/mm grating.) fitted with an IP28 photomultiplier detector connected to a sampling oscilloscope (Tektronix TDS 3032). A 532 nm holographic notch filter (Kaiser Optical Systems Inc.) was mounted in front of the monoochromator entrance slit to reduce the effect of laser scatter on the signal. Processing of the data was carried out using SigmaPlot for Windows (Version 8.0).
Transient absorbance difference (ΔA) measurements were carried out under oxygen-bubbled conditions and after degassing by nitrogen-bubbling for 20 minutes. […] However, N2 bubbling was used in the present studies as freeze-pump-thaw was inappropriate for the polymer samples.

The conditions of data set [4]: in solution; cited from earlier work.
Setting [5] is: one hour study, double filter sterilised solution.
The mark [6] stands for this setting: one hour study, unfiltered 10 mcg/mL solution.
The mark [7] stands for this setting: one hour study, filtered solution.
[8] abbreviates: one hour study, daylight / laboratory light, unfiltered solution.
[9] abbreviates: one hour study, unfiltered solution.

Procedure for Proteus mirabilis: as §1, §2, §3, §4
Procedure for Pseudomonas aeruginosa: as §1, §2, §3, §4

`C[N+](C)(C)c1ccc(-c2c3nc(c(-c4ccc([N+](C)(C)C)cc4)c4ccc([nH]4)c(-c4ccc([N+](C)(C)C)cc4)c4nc(c(-c5ccc([N+](C)(C)C)cc5)c5ccc2[nH]5)C=C4)C=C3)cc1.[Cl-].[Cl-].[Cl-].[Cl-]` [TMAP, tetra(4N,N,N-trimethyl-anilinium)porphine tetrachloride]: the reduction of growth with Pseudomonas aeruginosa (24 hour study, daylight, at 24 hours) came to 1 log cycle. The activity entry is recorded as “no activity” in the data set with Pseudomonas aeruginosa (one hour study, daylight) and “no activity” in the data set with Proteus mirabilis (one hour study, daylight). Also, the dark activity result in the data set with Pseudomonas aeruginosa (one hour study) is recorded as “some limited dark activity”. In addition, the “time to activity in light” value in the data set on Pseudomonas aeruginosa (setting [5]) and in the data set with Pseudomonas aeruginosa (setting [6]) was not above 30 min each time. The “reduction in viable count” value with Proteus mirabilis (in 3 hours) is listed as “three log cycle reduction”. In data set [1] (setting [7]), the “time to dark activity” value is “not active in the dark”. Besides, the “time to activity (no growth) in light” value in data set [1] (setting [8]) is not above 10 min. The “time to dark activity (no growth in dark control)” value in data set [1] (one hour study, daylight series, unfiltered solution, dark control) was not above 10 min. Further, the “time to activity in the dark” value in data set [1] (setting [7]) and in data set [1] (setting [9]) was not above 10 min throughout. The “time to activity on illumination” value in data set [1] (setting [7]) and in data set [1] (setting [9]) was not above 10 min each time.
In the case of `C[n+]1ccc(-c2c3nc(c(-c4cc[n+](C)cc4)c4ccc([nH]4)c(-c4cc[n+](C)cc4)c4nc(c(-c5cc[n+](C)cc5)c5ccc2[nH]5)C=C4)C=C3)cc1.Cc1ccc(S(=O)(=O)[O-])cc1.Cc1ccc(S(=O)(=O)[O-])cc1.Cc1ccc(S(=O)(=O)[O-])cc1.Cc1ccc(S(=O)(=O)[O-])cc1` [TMPyP, tetra(4N-methylpyridyl)porphine tetratosylate salt], in the data set with Pseudomonas aeruginosa (24 hour study, daylight, 10 mcg/mL solution, inoculum ca. 1×10^5 cfu/mL), the photosensitising activity result was “no photosensitising activity”. Moreover, in the data set on Pseudomonas aeruginosa (one hour study), the dark activity result is listed as “not active in the dark”. In addition, the “time to activity in light” value in the data set on Pseudomonas aeruginosa (setting [5]) was not above 40 min; in the data set on Pseudomonas aeruginosa (setting [6]) it was not above 40 min; in data set [1] (one hour study, daylight / laboratory light, filtered solution), not above 10 min. Moreover, the “1O2 emission decay lifetime” value in data set [2] is listed as 62 μs. The “reduction in growth / viable count” value in the data set with Proteus mirabilis (daylight) is reported as 1 log cycle. Also, the “reduction in viable count” value in the data set with Proteus mirabilis (by 5 hours) is reported as “three log cycle reduction”. The τ1/μs in data set [3] (N2 bubbled) is 161 μs and 161.0 ± 4.51 μs; in data set [3] (O2 bubbled) it was 0.436 ± 0.00062 μs. For the same molecule, the “triplet lifetime, solution phase” value in data set [3] (under O2) is 436 ns. The “time to dark activity” value in data set [1] (setting [7]) is not above 30 min. The “time to activity (no growth) in light” value in data set [1] (setting [8]) is not above 10 min. In addition, the “time to activity in the dark” value in data set [1] (setting [7]) was determined as 20 min; in data set [1] (setting [9]), 10 min. The “time to activity on illumination” value in data set [1] (setting [7]) and in data set [1] (setting [9]) was not above 10 min in each case.
With `Cl.Cl.O=S(=O)(O)c1ccc(-c2c3nc(c(-c4ccc(S(=O)(=O)O)cc4)c4ccc([nH]4)c(-c4ccc(S(=O)(=O)O)cc4)c4nc(c(-c5ccc(S(=O)(=O)O)cc5)c5ccc2[nH]5)C=C4)C=C3)cc1` [TPPS, tetra(4-sulfonatophenyl)-porphine dihydrochloride], the “reduction in the viable count” value with Pseudomonas aeruginosa (more intense source, by 5 hours illumination) is given as “one log cycle reduction”. Further, the “reduction in growth / viable count” value in the data set on Proteus mirabilis (daylight) is “no reduction in viable count”. Further, the “reduction in viable count” value in the data set on Proteus mirabilis (by 5 hours) is recorded as “did not show any photosensitising effect”. In addition, the “φ(1O2)” value in data set [4] is 0.6717. The results for the τ1/μs in data set [3] (N2 bubbled) and in data set [3] (O2 bubbled) were 227.5 ± 6.1 μs and 0.760 ± 0.0023 μs, respectively. Moreover, the “time to successful photoinactivation, complete kill” value in data set [1] (24 hour study, daylight) is 24 h. Further, the “time to activity on illumination” value in data set [1] (setting [7]) is not above 50 min; in data set [1] (setting [9]) it was not above 40 min.
